Data from ChEMBL document CHEMBL1135323, “Dihydroquinolines as novel n-NOS inhibitors” (Bioorg Med Chem Lett, 2002).

Legend:
Nitric oxide synthase 1 = Nitric oxide synthase 1 (Homo sapiens, UniProt P29475); assay: Concentration required to inhibit neuronal nitric oxide synthase
Nitric oxide synthase 3 = molecular target: T1, Nitric oxide synthase 3 (Homo sapiens, UniProt P29474); assay: In vitro inhibition of endothelial nitric oxide synthase.
T1 sequence (P29474 whole entry): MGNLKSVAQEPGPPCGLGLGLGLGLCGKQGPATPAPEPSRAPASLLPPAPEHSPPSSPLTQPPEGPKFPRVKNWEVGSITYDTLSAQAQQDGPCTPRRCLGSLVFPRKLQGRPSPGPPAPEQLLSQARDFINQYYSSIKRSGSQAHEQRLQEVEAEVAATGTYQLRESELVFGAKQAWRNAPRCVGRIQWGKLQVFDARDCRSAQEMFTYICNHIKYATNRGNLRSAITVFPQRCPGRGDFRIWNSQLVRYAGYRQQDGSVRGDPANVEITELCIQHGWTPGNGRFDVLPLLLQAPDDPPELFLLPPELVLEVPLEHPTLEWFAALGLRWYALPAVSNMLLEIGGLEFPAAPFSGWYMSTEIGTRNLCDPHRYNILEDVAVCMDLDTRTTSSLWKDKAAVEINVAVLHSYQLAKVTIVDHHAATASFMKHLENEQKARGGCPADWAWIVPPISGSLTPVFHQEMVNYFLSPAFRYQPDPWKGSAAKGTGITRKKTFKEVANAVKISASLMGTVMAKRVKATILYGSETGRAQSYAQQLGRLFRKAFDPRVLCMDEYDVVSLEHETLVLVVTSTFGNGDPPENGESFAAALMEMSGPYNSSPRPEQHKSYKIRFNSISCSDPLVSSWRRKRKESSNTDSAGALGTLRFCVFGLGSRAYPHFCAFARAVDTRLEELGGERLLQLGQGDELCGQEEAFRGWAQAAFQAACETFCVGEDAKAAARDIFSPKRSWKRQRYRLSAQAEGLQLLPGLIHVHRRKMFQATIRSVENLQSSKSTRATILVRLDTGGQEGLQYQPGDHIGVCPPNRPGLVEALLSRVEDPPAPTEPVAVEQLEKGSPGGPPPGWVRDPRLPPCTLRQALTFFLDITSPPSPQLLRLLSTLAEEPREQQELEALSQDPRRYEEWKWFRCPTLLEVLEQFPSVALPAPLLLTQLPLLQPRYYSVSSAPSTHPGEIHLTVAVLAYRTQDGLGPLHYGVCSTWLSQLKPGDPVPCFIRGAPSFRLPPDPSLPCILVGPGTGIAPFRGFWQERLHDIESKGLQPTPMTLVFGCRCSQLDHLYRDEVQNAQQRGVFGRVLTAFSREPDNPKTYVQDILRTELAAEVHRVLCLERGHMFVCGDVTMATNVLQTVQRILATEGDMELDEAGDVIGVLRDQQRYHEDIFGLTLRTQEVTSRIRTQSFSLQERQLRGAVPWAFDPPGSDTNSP

[1] = molecular target: Nitric oxide synthase, inducible (Homo sapiens, UniProt P35228); assay: In vitro inhibition of inducible nitric oxide synthase.
Sequence of Nitric oxide synthase, inducible (P35228 whole entry): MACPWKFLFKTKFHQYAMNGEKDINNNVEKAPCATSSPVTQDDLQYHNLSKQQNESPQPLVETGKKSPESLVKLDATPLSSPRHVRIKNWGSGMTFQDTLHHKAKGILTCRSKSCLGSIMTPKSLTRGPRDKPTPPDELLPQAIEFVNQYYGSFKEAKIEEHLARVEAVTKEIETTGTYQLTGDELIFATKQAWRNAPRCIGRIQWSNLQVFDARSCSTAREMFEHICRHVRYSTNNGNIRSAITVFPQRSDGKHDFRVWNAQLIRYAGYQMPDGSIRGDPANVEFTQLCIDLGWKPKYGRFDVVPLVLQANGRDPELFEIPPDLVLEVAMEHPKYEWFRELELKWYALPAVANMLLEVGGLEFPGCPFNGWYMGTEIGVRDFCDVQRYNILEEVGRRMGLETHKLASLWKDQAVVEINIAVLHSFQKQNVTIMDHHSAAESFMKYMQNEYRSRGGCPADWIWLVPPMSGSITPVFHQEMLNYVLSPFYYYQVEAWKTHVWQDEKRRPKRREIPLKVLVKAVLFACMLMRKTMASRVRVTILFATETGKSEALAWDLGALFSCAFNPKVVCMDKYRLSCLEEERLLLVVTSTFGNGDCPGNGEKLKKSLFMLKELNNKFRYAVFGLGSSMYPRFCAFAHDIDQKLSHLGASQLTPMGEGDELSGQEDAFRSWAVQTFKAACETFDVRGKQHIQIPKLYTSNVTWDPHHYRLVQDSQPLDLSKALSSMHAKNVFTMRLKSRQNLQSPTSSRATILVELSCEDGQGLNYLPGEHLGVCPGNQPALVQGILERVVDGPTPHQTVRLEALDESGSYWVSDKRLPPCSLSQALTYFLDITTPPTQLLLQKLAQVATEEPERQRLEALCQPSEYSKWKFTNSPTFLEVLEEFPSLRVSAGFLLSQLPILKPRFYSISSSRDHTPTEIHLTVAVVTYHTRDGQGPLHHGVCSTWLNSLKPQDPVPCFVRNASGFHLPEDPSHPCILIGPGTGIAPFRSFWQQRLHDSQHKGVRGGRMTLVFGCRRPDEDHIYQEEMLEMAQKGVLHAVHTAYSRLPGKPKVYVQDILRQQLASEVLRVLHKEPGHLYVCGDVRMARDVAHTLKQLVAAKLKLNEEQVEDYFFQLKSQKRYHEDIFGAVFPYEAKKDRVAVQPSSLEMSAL

Sequence of Nitric oxide synthase 1 (P29475 whole entry): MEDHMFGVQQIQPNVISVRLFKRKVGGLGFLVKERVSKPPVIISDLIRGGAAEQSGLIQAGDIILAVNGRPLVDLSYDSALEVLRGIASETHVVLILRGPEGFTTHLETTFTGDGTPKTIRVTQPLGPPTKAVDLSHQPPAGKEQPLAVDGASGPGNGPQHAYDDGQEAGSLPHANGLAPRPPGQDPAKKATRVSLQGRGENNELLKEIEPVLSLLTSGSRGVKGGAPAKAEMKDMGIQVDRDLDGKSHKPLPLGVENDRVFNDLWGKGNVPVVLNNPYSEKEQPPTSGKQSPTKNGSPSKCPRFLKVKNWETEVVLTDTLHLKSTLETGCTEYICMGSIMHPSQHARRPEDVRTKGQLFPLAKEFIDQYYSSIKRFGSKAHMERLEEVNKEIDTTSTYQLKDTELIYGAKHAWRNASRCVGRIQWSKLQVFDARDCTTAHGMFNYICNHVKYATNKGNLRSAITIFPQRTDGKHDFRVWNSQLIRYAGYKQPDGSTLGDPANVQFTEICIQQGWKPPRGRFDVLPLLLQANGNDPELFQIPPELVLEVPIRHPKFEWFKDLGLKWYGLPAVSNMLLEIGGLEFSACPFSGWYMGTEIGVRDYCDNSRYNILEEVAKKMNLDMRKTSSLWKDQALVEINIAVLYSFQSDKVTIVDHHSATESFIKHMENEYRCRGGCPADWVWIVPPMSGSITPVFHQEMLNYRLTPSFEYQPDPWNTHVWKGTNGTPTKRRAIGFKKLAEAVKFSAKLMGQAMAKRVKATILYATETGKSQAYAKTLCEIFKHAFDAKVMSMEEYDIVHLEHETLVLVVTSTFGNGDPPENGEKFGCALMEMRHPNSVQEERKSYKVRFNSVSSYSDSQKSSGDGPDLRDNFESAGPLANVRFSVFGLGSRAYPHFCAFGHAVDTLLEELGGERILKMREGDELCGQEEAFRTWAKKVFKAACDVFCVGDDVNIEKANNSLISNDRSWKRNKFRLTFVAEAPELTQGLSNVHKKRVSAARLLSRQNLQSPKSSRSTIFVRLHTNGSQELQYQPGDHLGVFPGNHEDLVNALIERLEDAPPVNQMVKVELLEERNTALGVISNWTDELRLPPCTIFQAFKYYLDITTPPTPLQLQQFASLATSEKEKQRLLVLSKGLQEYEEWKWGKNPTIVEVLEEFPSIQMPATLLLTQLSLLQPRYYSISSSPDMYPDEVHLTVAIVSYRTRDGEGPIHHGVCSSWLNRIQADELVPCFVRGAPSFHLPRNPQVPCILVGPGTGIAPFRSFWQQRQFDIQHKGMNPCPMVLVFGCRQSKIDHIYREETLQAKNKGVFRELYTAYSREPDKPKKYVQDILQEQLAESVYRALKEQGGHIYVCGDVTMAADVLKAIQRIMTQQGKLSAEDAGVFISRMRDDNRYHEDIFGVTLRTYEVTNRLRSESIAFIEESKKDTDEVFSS

Row | Structure (SMILES) | IC50 (Nitric oxide synthase 1) [µM] | IC50 (Nitric oxide synthase 3) [µM] | IC50 [1] [µM]
1 | COc1ccc2c(c1)[C@H]1CCC[C@H]1C(N)=N2 | 0.64 | 24 | 13
2 | ONC1=Nc2ccccc2[C@H]2CCC[C@@H]12 | > 100 |  | 
3 | NC1=Nc2ccccc2[C@H]2CCC[C@@H]12 | 0.16 | 3.3 | 2.7
4 | NC1=Nc2ccccc2[C@H]2CCCCC[C@@H]12 | 100 |  | 
5 | NC1=Nc2ccc(Br)cc2[C@H]2CCC[C@@H]12 | 0.31 | 17 | 14
6 | COC(=O)[C@@H](N)CCCNC(=N)N[N+](=O)[O-] [L-NAME] | 1.6 | 1.5 | 8
7 | Cc1ccc2c(c1)N=C(N)[C@@H]1CCC[C@H]21 | 0.19 | 6.2 | 1.1
8 | NC1=Nc2ccc([N+](=O)[O-])cc2[C@H]2CCC[C@@H]12 | 0.25 | 34 | 15
9 | Cc1ccc2c(c1)[C@H]1CCC[C@H]1C(N)=N2 | 0.5 | 21 | 12
10 | CNC1=Nc2ccccc2[C@H]2CCC[C@@H]12 | > 100 |  | 
11 | c1ccc2c(c1)NC[C@@H]1CCC[C@H]21 | > 200 |  | 
12 | NC1=Nc2ccc(F)cc2[C@H]2CCC[C@@H]12 | 0.11 | 2.3 | 1.7
13 | NC1=Nc2ccc(C(F)(F)F)cc2[C@H]2CCC[C@@H]12 | 1.6 | 57 | 89
14 | NC1=Nc2c(F)cc(Cl)cc2[C@H]2CCC[C@@H]12 | 0.73 | 72 | 35
15 | NC1=Nc2c(cc(Cl)c(F)c2F)[C@H]2CCC[C@@H]12 | 2.1 | > 200 | 78

The remaining lines, values ahead:

Row | IC50 (Nitric oxide synthase 1) [µM] | IC50 (Nitric oxide synthase 3) [µM] | IC50 [1] [µM] | Structure (SMILES)
16 | 0.13 | 2.3 | 1.1 | NC1=Nc2cc(F)ccc2[C@H]2CCC[C@@H]12
17 | 0.14 | 6.2 | 5.7 | NC1=Nc2ccc(Cl)cc2[C@H]2CCC[C@@H]12
18 | 6.8 |  |  | NC1=Nc2ccccc2[C@H]2CCCC[C@@H]12
19 | 0.24 | 4.1 | 1.4 | COc1ccc2c(c1)N=C(N)[C@@H]1CCC[C@H]21
20 | 0.31 | 12 | 2.6 | NC1=Nc2cc([N+](=O)[O-])ccc2[C@H]2CCC[C@@H]12
21 | 0.64 | 54 | 32 | N#Cc1ccc2c(c1)[C@H]1CCC[C@H]1C(N)=N2
22 | 4.1 | > 200 | 30 | NC1=Nc2c(Cl)cc(Cl)cc2[C@H]2CCC[C@@H]12
23 | 0.13 | 0.96 | 4.1 | NC1=Nc2ccccc2[C@H]2COC[C@@H]12
24 | 3.3 |  |  | NC1=Nc2ccccc2N2CCCC12 (stereo unspecified)
25 | 0.68 | 20 | 5.1 | NC1=Nc2c(ccc(F)c2F)[C@H]2CCC[C@@H]12
26 | 0.17 | 5.8 | 2.3 | NC1=Nc2c(F)cccc2[C@H]2CCC[C@@H]12
